In patent US20230080054A1 (ILDONG PHARMACEUTICAL CO., LTD., priority 2021, published 2023):

Molecular target: T1, human ANO6 (Homo sapiens, UniProt Q4KMQ2)
T1 construct: expressed in transfected cells
T1 sequence (Q4KMQ2 1-931 isoform Q4KMQ2-2): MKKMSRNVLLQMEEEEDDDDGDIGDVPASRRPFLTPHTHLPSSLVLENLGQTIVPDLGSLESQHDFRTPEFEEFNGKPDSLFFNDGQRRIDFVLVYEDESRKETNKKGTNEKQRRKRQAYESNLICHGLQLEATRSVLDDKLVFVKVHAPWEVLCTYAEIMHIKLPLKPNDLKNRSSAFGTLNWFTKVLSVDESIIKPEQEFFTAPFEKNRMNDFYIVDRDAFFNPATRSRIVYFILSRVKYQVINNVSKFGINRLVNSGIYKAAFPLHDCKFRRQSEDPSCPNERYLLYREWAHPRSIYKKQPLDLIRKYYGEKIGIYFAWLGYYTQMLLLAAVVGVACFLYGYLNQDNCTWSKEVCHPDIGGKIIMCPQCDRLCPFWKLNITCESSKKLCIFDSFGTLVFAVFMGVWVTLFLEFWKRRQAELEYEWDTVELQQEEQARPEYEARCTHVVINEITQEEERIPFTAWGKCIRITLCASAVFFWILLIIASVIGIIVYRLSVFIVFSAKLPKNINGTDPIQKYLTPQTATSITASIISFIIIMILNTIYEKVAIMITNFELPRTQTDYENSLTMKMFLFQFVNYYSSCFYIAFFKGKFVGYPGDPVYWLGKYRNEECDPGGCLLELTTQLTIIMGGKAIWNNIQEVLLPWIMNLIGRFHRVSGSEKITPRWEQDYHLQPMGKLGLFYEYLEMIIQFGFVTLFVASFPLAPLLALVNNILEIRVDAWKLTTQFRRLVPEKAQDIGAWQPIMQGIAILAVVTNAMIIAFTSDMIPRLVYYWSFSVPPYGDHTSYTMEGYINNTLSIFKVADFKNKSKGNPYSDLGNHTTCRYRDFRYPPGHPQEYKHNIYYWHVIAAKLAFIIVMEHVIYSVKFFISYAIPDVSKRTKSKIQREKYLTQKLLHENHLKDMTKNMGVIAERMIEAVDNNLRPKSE
Assay: YFP quenching assay (ANO6 ion channel activity)
Format: cell-based
Conditions: 10 μM ionomycin; for inhibition at 1 µM: test compound 1 μM, read-out: Inhibition Level 1 μM; for inhibition at 30 µM: test compound 30 μM, read-out: Inhibition Level 30 μM
Text: Example 3: YFP Quenching Assay
1. Materials and Instruments
Ionomycin (Alomonelab cat. #I-700), FLUOstar Omega microplate reader (BMG Labtech, Ortenberg, Germany), and MARS Data Analysis Software (BMG Labtech)
Fisher rat thyroid (FRT) cells stably expressing human ANO6 (GenBank accession no. NP_001191732.1, provided by J. H. Nam, Dongguk University College of Medicine, Korea) and halide sensor mutant YFP-H148Q/I152L/F46L) were constructed and grown in Dulbecco's modified Eagle's medium Nutrient Mixture F-12 (DMEM/F-12) supplemented 10% FBS, 100 units/mL penicillin, 500 μg/mL hygromycin B and 100 μg/mL neomycin.
Fisher rat thyroid (FRT) cells stably expressing human ANO6 and halide sensor mutant YFP (H148Q/I152L/F46L) were seeded in black walled 96 well plates and incubated in a 37° C., 5% CO2 incubator to reach about 100% cell confluency. Then, each well of the 96 well plates were washed for several times with phosphate buffered saline (PBS), and 50 μL of PBS was added to each well. Test compounds (100× in DMSO) were added to each well to be 1% v/v DMSO. After incubation for 10 minutes in 40° C., the 96 well plates were transferred to a plate reader, and YFP fluorescence changed by SCN-introduced into cells through activated ANO6 were measured by the following steps.
(1) YFP fluorescence signals were recorded in every 0.4 seconds.
(2) Basal YFP fluorescence signals were recorded for 1 second.
(3) 140 mM SCN-(50 μL) containing 10 μM ionomycin was injected to each well, and YFP fluorescence signals were recorded.
The inhibitory activity (%) of each of the test compounds was obtained by the following steps.
(1) Background signals were subtracted from recording values, and the resulting values were converted to relative percentages. The values at 0 second were set to be 100%.
(2) Differences between the values at 3.6 seconds and those of at 7.6 seconds were calculated.
(3) In each row of 96 well plate, the inhibitory activity of each of the test compounds was calculated as percentages. The inhibitory activity of a negative control group to which neither compounds nor ionomycin were treated was set to be 100%, and the inhibitory activity of a positive control group to which ionomycin was treated and compounds were not treated was set to be 0%.
(4) The assay was performed in duplicate or triplicate, and the results were averaged.

Cc1ccc(CNC(=O)c2cccc(Nc3ccc(C4CCN(C)CC4)nn3)c2)o1 [Compound 70, N-[(5-methylfuran-2-yl)methyl]-3-{[6-(1-methylpiperidin-4-yl)pyridazin-3-yl]amino}benzamide]
inhibition at 1 µM: < 30%

Cc1ccc(CNC(=O)c2cccc(Nc3ccc(C4CCNCC4)nn3)c2)o1 [Compound 71, N-[(5-methylfuran-2-yl)methyl]-3-{[6-(piperidin-4-yl)pyridazin-3-yl]amino}benzamide]
inhibition at 1 µM: < 30%

CCN(CC)CCNC(=O)c1cccc(Nc2ncc(-c3ccccc3)cn2)c1 [Compound 96, N-[2-(diethylamino)ethyl]-3-[(5-phenylpyrimidin-2-yl)amino]benzamide]
inhibition at 1 µM: < 30%

COc1ccc(CCNC(=O)c2cccc(Nc3ncc(-c4ccccc4)cn3)c2)cc1 [Compound 83, N-[2-(4-methoxyphenyl)ethyl]-3-[(5-phenylpyrimidin-2-yl)amino]benzamide]
inhibition at 1 µM: 30 to 60%

CCNC(=O)c1cccc(Nc2ccc(-c3ccccc3)nn2)c1 [Compound 37, N-ethyl-3-[(6-phenylpyridazin-3-yl)amino]benzamide]
inhibition at 1 µM: 30 to 60% | inhibition at 30 µM: ≥ 60%

O=C(NCc1ccncc1)c1cccc(Nc2ccc(-c3ccccc3)nn2)c1 [Compound 18, 3-[(6-phenylpyridazin-3-yl)amino]-N-[(pyridin-4-yl)methyl]benzamide]
inhibition at 1 µM: < 30% | inhibition at 30 µM: 30 to 60%

Cc1ccc(CNC(=O)c2cccc(Nc3ccc(C4CCCC4)nn3)c2)o1 [Compound 62, 3-[(6-cyclopentylpyridazin-3-yl)amino]-N-[(5-methylfuran-2-yl)methyl]benzamide]
inhibition at 1 µM: < 30%

Cc1ccc(CNC(=O)c2cccc(Nc3ccc(-c4ccc(Cl)c(Cl)c4)nn3)c2)o1 [Compound 16, 3-{[6-(3,4-dichlorophenyl)pyridazin-3-yl]amino}-N-[(5-methylfuran-2-yl)methyl]benzamide]
inhibition at 30 µM: < 30%

COc1cccc(C(C)NC(=O)c2cccc(Nc3ccc(-c4ccccc4)nn3)c2)c1 (stereo not drawn) [Compound A79]
inhibition at 1 µM: 30 to 60% | inhibition at 30 µM: ≥ 60%

CN1CCN(CCNC(=O)c2cccc(Nc3ncc(-c4ccccc4)cn3)c2)CC1 [Compound 97, N-[2-(4-methylpiperazin-1-yl)ethyl]-3-[(5-phenylpyrimidin-2-yl)amino]benzamide]
inhibition at 1 µM: < 30%

Cc1ccc(CNC(=O)c2cccc(Nc3ccc(-c4ccco4)nn3)c2)o1 [Compound 8, 3-{[6-(furan-2-yl)pyridazin-3-yl]amino}-N-[(5-methylfuran-2-yl)methyl]benzamide]
inhibition at 1 µM: 30 to 60% | inhibition at 30 µM: ≥ 60%

Cc1ccc(CNC(=O)c2cccc(Nc3ncc(-c4ccccc4)nn3)c2)o1 [Compound 12, N-[(5-methylfuran-2-yl)methyl]-3-[(6-phenyl-1,2,4-triazin-3-yl)amino]benzamide]
inhibition at 1 µM: 30 to 60% | inhibition at 30 µM: 30 to 60%

O=C(NCCc1ccccc1)c1cnc(Nc2ccc(-c3ccccc3)nn2)s1 [Compound 113, N-(2-phenylethyl)-2-[(6-phenylpyridazin-3-yl)amino]-1,3-thiazole-5-carboxamide]
inhibition at 1 µM: < 30%

O=C(NC1CCOCC1)c1cccc(Nc2ccc(-c3ccccc3)nn2)c1 [Compound 28, N-(oxan-4-yl)-3-[(6-phenylpyridazin-3-yl)amino]benzamide]
inhibition at 1 µM: < 30% | inhibition at 30 µM: ≥ 60%

O=C(NC1CCCc2ccccc21)c1cccc(Nc2ncc(-c3cccc(F)c3)cn2)c1 (stereo not drawn) [Compound A82]
inhibition at 1 µM: 30 to 60%

COc1ccc(CNC(=O)c2cccc(Nc3ccc(-c4ccc(F)cc4)nn3)c2)c(OC)c1 [Compound A9]
inhibition at 30 µM: 30 to 60%

Cc1ccc(CNC(=O)c2cccc(Nc3cccnn3)c2)o1 [Compound 5, N-[(5-methylfuran-2-yl)methyl]-3-[(pyridazin-3-yl)amino]benzamide]
inhibition at 30 µM: 30 to 60%

CCN(CC)c1ccc(CNC(=O)c2cccc(Nc3ncc(-c4cccc(F)c4)cn3)c2)cc1 [Compound A81]
inhibition at 1 µM: 30 to 60%

Cc1ccc(CNC(=O)c2cccc(Nc3ccc(-c4cccc(F)c4)nn3)c2)cc1 [Compound A25]
inhibition at 1 µM: 30 to 60% | inhibition at 30 µM: ≥ 60%

Cc1ccc(CNC(=O)c2cccc(Nc3ncc(-c4ccc(C(=O)O)cc4)cn3)c2)o1 [Compound 109, 4-{2-[(3-{[(5-methylfuran-2-yl)methyl]carbamoyl}phenyl)amino]pyrimidin-5-yl}benzoic acid]
inhibition at 1 µM: < 30%

Cc1ccc(CNC(=O)c2cccc(Nc3ncc(-c4ccc(F)cc4)cn3)c2)o1 [Compound A19]
inhibition at 30 µM: 30 to 60%

Cc1ccc(CNC(=O)c2cccc(Nc3nnccc3C)c2)o1 [Compound 48, N-[(5-methylfuran-2-yl)methyl]-3-[(4-methylpyridazin-3-yl)amino]benzamide]
inhibition at 1 µM: < 30%

Cc1ccc(CNC(=O)c2cccc(Nc3ccc(CCc4ccccc4)nn3)c2)o1 [Compound 76, N-[(5-methylfuran-2-yl)methyl]-3-{[6-(2-phenylethyl)pyridazin-3-yl]amino}benzamide]
inhibition at 1 µM: < 30%

Cc1ccc(CNC(=O)c2cccc(Nc3ncc(-c4cccc(C(F)(F)F)c4)cn3)c2)o1 [Compound 99, N-[(5-methylfuran-2-yl)methyl]-3-({5-[3-(trifluoromethyl)phenyl]pyrimidin-2-yl}amino)benzamide]
inhibition at 1 µM: 30 to 60%

Cc1ccc(CNC(=O)c2cccc(Nc3ccc(C(C)C)nn3)c2)o1 [Compound 85, N-[(5-methylfuran-2-yl)methyl]-3-{[6-(propan-2-yl)pyridazin-3-yl]amino}benzamide]
inhibition at 1 µM: 30 to 60%

O=C(NCCCc1ccccc1)c1cccc(Nc2ncc(-c3ccccc3)cn2)c1 [Compound 55, N-(3-phenylpropyl)-3-[(5-phenylpyrimidin-2-yl)amino]benzamide]
inhibition at 1 µM: ≥ 60%

Cc1ccc(-c2ccc(Nc3cccc(C(=O)NC(C)C)c3)nn2)cc1 [Compound A31]
inhibition at 1 µM: 30 to 60% | inhibition at 30 µM: ≥ 60%

Cc1ccc(CNC(=O)c2cccc(Nc3ccc(CCc4ccc(F)cc4)nn3)c2)o1 [Compound 77, 3-({6-[2-(4-fluorophenyl)ethyl]pyridazin-3-yl}amino)-N-[(5-methylfuran-2-yl)methyl]benzamide]
inhibition at 1 µM: < 30%

Cc1ccc(CNC(=O)c2cccc(Nc3ccc(-c4ccncc4)nn3)c2)o1 [Compound 9, N-[(5-methylfuran-2-yl)methyl]-3-{[6-(pyridin-4-yl)pyridazin-3-yl]amino}benzamide]
inhibition at 1 µM: < 30% | inhibition at 30 µM: ≥ 60%

Cc1ccc(CNC(=O)c2cccc(Nc3ccc(C4CC4)nn3)c2)o1 [Compound 43, 3-[(6-cyclopropylpyridazin-3-yl)amino]-N-[(5-methylfuran-2-yl)methyl]benzamide]
inhibition at 1 µM: < 30%

Cc1ccc(-c2ccc(Nc3cccc(C(=O)NCC(C)C)c3)nn2)cc1 [Compound A33]
inhibition at 1 µM: 30 to 60% | inhibition at 30 µM: ≥ 60%

CCN(CCCNC(=O)c1cccc(Nc2ccc(-c3ccccc3)nn2)c1)Cc1ccccc1 [Compound A42]
inhibition at 1 µM: 30 to 60% | inhibition at 30 µM: ≥ 60%

Cc1ccc(CNC(=O)c2cccc(Nc3ncc(-c4cccc(F)c4)cn3)c2)o1 [Compound A20]
inhibition at 1 µM: < 30% | inhibition at 30 µM: 30 to 60%
